Target: T1, hTAS2R14 (Homo sapiens, UniProt Q9NYV8)
T1 construct: first 45 amino acids of rat somatostatin receptor type 3 (sst3 membrane-targeting tag) (N); expressed in transfected cells; host or cells: HEK293 T-Rex Flp-In cells stably expressing Gα16-gust44; induced with doxycycline
T1 sequence (Q9NYV8 1-317): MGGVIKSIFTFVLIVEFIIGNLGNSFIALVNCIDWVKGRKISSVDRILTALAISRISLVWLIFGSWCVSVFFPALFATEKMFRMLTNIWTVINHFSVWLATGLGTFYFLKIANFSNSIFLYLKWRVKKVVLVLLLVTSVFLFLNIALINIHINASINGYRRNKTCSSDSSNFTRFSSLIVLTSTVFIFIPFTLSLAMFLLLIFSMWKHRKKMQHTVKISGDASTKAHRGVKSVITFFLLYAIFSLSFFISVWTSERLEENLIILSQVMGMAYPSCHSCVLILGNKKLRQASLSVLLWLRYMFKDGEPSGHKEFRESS
Experiment: Calcium assay of hTAS2R14 activation/inhibition in HEK293 T-Rex Flp-In cells
Type: cell-based
Settings: for IC50, Simultaneous / Threshold, Simultaneous: simultaneous addition, n.b. = no blocking; for IC50 / Threshold, Stepwise: stepwise addition
Source text: For functional expression of the human bitter taste receptor hTAS2R39, HEK293 T-Rex Flp-In cells (Invitrogen, San Diego, CA, USA) were used, stably expressing the chimeric G-protein α-subunit Gα16-gust44 (cloned into pcDNA4 (Invitrogen)) and the human bitter receptor genes for hTAS2R39 (cloned into pcDNA5/FRT (Invitrogen)). The bitter receptor gene contained a DNA sequence encoding the first 45 amino acids of rat somatostatin receptor type 3 at its 5′ end (the receptor expression was achieved according to [18] with exception of the HSV-tag), in order to improve membrane targeting of the receptor protein. The same procedure was applied for stable expression of hTAS2R14. Cells were maintained in Dulbecco's Modified Eagle's Medium (DMEM) and 10% (v/v) tetracycline-free FBS (both Lonza, Verviers, Belgium) supplemented with blasticidin (5 μg/mL), geneticin (400 μg/mL) and hygromycin (100 μg/mL) (all from Invitrogen). Cells were grown and maintained at 37 °C and 5% (v/v) CO2.
Cells were seeded into poly-L-lysine-coated (Sigma-Aldrich) 96-well plates (black wall, clear bottom, Greiner bio-one, Frickenhausen, Germany) at a density of 7*10^3 cells in 100 μL/well and cultured for 24 h. Transcription of the receptors was induced by adding 0.25 μg/mL doxycycline (Sigma-Aldrich). […] One hour after loading, cells were washed with Tyrode's buffer and taken up in Tyrode's buffer. Stock solutions of test compounds were prepared in DMSO and diluted to the appropriate concentration in Tyrode's buffer, not exceeding a DMSO concentration of 1% (v/v).
Two methods of compound administration were applied: simultaneous and stepwise addition of potential antagonist and agonist. The first 17 s before compound addition were used for baseline determination. For the simultaneous method, agonist and potential antagonist were pre-mixed, administered after 17 s, and fluorescence was measured for in total 90 s. For the stepwise method, after 17 s, the potential antagonist was added, fluorescence was measured until 120 s, and after 120 s the agonist was added and measured for another 120 s, in total 240 s. […] Each experiment was performed at least in duplicate in separate experiments (as indicated for each figure).
Data processing was done as reported previously. In brief, SoftMax Pro 5.4 software (Molecular Devices Corporation) was used to plot the fluorescence signals. The fluorescence value (ΔF/F0), representing receptor activity, was calculated by subtracting the baseline fluorescence (F0) prior to loading from the maximum fluorescence (F) after compound addition, divided by the signal of the baseline in order to normalize background fluorescence. Dose-response curves were established as non-linear regression curves using Graph Pad Prism (version 4 for Windows, Graph Pad Software, San Diego, CA, USA). Half-maximal effective concentrations (EC50) and half-maximal inhibitory concentrations (IC50) were calculated. Error bars reflect the standard error of the mean (SEM). Statistical analysis was performed in Graph Pad Prism (one-way ANOVA at 5% risk level, followed by Bonferroni's post hoc test).
Inhibition was indicated when [drawing 1] . In case of indicated inhibition, flavanones were applied at different concentrations, in order to test for dose-dependent inhibition, at the EC80 concentration of the agonist. […] To investigate the specificity of flavanones for inhibition of hTAS2R39 and hTAS2R14, another bitter taste receptor, hTAS2R16 (not known to be activated by flavonoids), was used in inhibition experiments ( File S3 ) towards its agonist salicin.

[1] = inhibition of hTAS2R14 response to 70 μM genistein
[2] = inhibition of hTAS2R14 response to 640 μM ECG

| SMILES | inhibition of hTAS2R14 by probenecid in the buffer (0.5 mM probenecid in Tyrode's buffer, agonist equol) | IC50, Simultaneous [1] | Threshold, Simultaneous [1] | IC50 [1] [µM] | Threshold, Stepwise [1] [µM] | IC50, Simultaneous [2] | Threshold, Simultaneous [2] | IC50 [2] [µM] | Threshold, Stepwise [2] [µM] | blocking of hTAS2R14 (640 μM ECG, simultaneous application) | inhibition of hTAS2R14 (640 μM ECG, stepwise application) |
| --- | --- | --- | --- | --- | --- | --- | --- | --- | --- | --- | --- |
| CCCN(CCC)S(=O)(=O)c1ccc(C(=O)O)cc1 [probenecid, p-(dipropylsulfamyl)benzoic acid, reference compound] | did not lead to inhibition | – | – | – | – | – | – | – | – | – | – |
| COc1ccc2c(c1)C(=O)CC(c1ccccc1)O2 (stereo not shown) [Compound 11, 6-Methoxyflavanone] | – | n.b. | n.b. | 741 ± 143 | 500 | n.b. | n.b. | 447 ± 123 | 250 | – | – |
| COc1ccc2c(c1)C(=O)CC(c1ccc(F)cc1)O2 (stereo not shown) [Compound 6, 4′-Fluoro-6-methoxyflavanone] | – | n.b. | n.b. | ~500 | 32 | n.b. | n.b. | 79 ± 25 | <8 | no blocking | an inhibitory effect was observed |
